In patent US10854312B2, “Selective peptide antagonists” (BIONIZ, LLC, priority 2013, dated 2020):
No end group written: not given here.

How the values were obtained:
[1] = tested on: γc-cytokines; experiment: Target cytokine spectrum within the γc-family; format: cell-based
[2] = tested on: IL-17A and IL-17F; experiment: Inhibition of IL-17 family members; conditions: no test described
[3] = tested on: IL-6; experiment: T1165 cell proliferation assay, IL-6; format: cell-based
Method: CTLL2 cells are cultured in the presence of 5 u/ml and 10 u/ml of IL-2 (FIG. 10A) and 2.5 ng/ml and 5 ng/ml of IL-15 (FIG. 10B) in the presence of increasing concentration of BNZ132-PEG-130. T1165 cells are cultured with 0.1 ng/ml of IL-6 (FIG. 10C) and increasing concentration of BNZ132-PEG-130. […] BNZ132-1 was conjugated to BNZ130 via a PEG24 linker. The name of the bi-antagonist peptide is BNZ132-PEG-130. FIG. 10A and FIG. 10B show the results of BNZ132-PEG-130 in IL-2 (FIG. 10A) and IL-15 (FIG. 10B) CTLL2 proliferation assay. Cells were washed and incubated with IL-2 (5 and 10 units/ml), IL-15 (2.5 and 5 ng/ml) in the presence or absence of BNZ132-PEG-130 (0.1-10 μM). Cells were then pulsed with the WST-1 reagent to measure the proliferative response for the next 6 hr (OD450). […] Cells are washed and incubated with IL-6 (0.1 ng/ml) in the presence or absence of BNZ132-PEG-130 (0.1-10 μM) for 24 hours. Cells were then pulsed with WST-1 reagent for the following 6 hr to measure OD450. The BNZ130-1 polypeptide as presented in Table 2, above, is tested for its activity in inhibiting IL-6 activity. T1165 cells that are dependent on human or mouse IL-6 for their growth in vitro are selected. The cell line is cultured in the absence of IL-6, In the presence of IL-6, in the presence of BNZ130-1, and in the presence of IL-6 and BNZ130-1.

Q: What does the source list for “BNZ gamma: polypeptide SEQ ID NO: 130 (Table 6) of IL-15, IL-2 and IL-9 D-helix fragments; probably the same as BNZ132-1 (IKEFLQSFIHIVQSIINT)”?
A: γc-cytokines not inhibited ([1]; IL-4, IL-7 and IL-21): does not exhibit inhibitory activity; γc-cytokines inhibited ([1]; summary statements, BNZ132-2 and -3 data not shown): inhibitory activity against all of IL-2, IL-15 and IL-9

Q: For “BNZ17-1: inhibitory polypeptide SEQ ID NO: 144 of IL-17A and IL-17F target region fragments (Table 7) (YSRSTSPWRYHRDRDPNRYPSDLYHAKC)”, which “specific inhibition within the IL-17 family” value [2] is on record?
A: specifically inhibits IL-17A and IL-17F to the exclusion of the remaining family members

Q: With LTHLIERSSRAVLQSLLRASRQ [BNZ130-1] as the substance, how does the “antagonistic activity on T1165 proliferation in the presence of IL-6” value ([3]; Example 11, T1165 cells dependent on IL-6) read?
A: dose-dependent antagonistic activity

Q: And the “effect on T1165 cell survival” value ([3]; Example 11, with or without IL-6)?
A: does not affect T1165 survival
